Data as given in ChEMBL document CHEMBL4673338, “ROCK inhibitors 4: Structure-activity relationship studies of 7-azaindole-based rho kinase (ROCK) inhibitors” (Bioorg Med Chem Lett, 2021).

Assays:
[1] = target: Cytochrome P450 3A4 (Homo sapiens, UniProt P08684); assay: Inhibition of CYP3A4 (unknown origin); format: ADME
[2] = test system: THP-1; assay: Antimigratory activity against human THP-1 cells; format: functional, cell-based
[3] = organism: Homo sapiens; assay: Selectivity index, ratio of Ki for PKA (unknown origin) to Ki for ROCK1 (unknown origin)
[4] = target: Rho-associated protein kinase 1 (Homo sapiens, UniProt Q13464); assay: Inhibition of ROCK1 (unknown origin)
[5] = target: Voltage-gated inwardly rectifying potassium channel KCNH2 (Homo sapiens, UniProt Q12809); assay: Inhibition of human ERG
[6] = Intrinsic clearance in rat Hepatocyte assessed per million cells; format: ADME, tissue-based; conditions: hepatocytes, read-out: CLH
[7] = Intrinsic clearance in human Hepatocyte assessed per million cells; format: ADME, tissue-based; conditions: hepatocytes, read-out: CLH
[8] = Oral bioavailability in rat at 3 mg/kg; format: ADME, organism-based; conditions: in vivo
[9] = Cmax in rat at 3 mg/kg, po; format: ADME, organism-based; parameters: route oral, dose 3 mg/kg; conditions: in vivo
[10] = AUC(0 to infinity) in rat at 3 mg/kg, po; format: ADME, organism-based; parameters: route oral, time infinity, dose 3 mg/kg; conditions: in vivo
[11] = AUC(0 to infinity) in rat at 1 mg/kg, iv; format: ADME, organism-based; parameters: route intravenous, time infinity, dose 1 mg/kg; conditions: in vivo
[12] = Volume of distribution at steady state in rat at 1 mg/kg, iv; format: ADME, organism-based; conditions: in vivo, read-out: Vdss
[13] = Half life in rat at 1 mg/kg, iv; format: ADME, organism-based; conditions: in vivo
[14] = Clearance in rat at 1 mg/kg, iv; format: ADME, organism-based; conditions: in vivo

Chain of Cytochrome P450 3A4 (P08684 whole entry): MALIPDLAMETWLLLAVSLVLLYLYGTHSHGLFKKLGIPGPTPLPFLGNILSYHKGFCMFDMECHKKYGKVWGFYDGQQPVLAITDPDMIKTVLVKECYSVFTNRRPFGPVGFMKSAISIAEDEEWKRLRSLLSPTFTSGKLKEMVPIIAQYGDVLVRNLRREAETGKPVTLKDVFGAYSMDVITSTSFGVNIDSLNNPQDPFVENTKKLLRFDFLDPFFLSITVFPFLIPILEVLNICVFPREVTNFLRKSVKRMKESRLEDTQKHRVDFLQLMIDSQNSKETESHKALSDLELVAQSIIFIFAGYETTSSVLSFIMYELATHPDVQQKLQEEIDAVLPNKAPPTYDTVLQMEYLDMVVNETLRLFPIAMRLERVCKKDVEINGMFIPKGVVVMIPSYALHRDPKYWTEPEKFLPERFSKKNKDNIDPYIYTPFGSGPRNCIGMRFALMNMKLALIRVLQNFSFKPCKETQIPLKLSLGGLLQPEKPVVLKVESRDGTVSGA
Chain of Voltage-gated inwardly rectifying potassium channel KCNH2 (Q12809 whole entry): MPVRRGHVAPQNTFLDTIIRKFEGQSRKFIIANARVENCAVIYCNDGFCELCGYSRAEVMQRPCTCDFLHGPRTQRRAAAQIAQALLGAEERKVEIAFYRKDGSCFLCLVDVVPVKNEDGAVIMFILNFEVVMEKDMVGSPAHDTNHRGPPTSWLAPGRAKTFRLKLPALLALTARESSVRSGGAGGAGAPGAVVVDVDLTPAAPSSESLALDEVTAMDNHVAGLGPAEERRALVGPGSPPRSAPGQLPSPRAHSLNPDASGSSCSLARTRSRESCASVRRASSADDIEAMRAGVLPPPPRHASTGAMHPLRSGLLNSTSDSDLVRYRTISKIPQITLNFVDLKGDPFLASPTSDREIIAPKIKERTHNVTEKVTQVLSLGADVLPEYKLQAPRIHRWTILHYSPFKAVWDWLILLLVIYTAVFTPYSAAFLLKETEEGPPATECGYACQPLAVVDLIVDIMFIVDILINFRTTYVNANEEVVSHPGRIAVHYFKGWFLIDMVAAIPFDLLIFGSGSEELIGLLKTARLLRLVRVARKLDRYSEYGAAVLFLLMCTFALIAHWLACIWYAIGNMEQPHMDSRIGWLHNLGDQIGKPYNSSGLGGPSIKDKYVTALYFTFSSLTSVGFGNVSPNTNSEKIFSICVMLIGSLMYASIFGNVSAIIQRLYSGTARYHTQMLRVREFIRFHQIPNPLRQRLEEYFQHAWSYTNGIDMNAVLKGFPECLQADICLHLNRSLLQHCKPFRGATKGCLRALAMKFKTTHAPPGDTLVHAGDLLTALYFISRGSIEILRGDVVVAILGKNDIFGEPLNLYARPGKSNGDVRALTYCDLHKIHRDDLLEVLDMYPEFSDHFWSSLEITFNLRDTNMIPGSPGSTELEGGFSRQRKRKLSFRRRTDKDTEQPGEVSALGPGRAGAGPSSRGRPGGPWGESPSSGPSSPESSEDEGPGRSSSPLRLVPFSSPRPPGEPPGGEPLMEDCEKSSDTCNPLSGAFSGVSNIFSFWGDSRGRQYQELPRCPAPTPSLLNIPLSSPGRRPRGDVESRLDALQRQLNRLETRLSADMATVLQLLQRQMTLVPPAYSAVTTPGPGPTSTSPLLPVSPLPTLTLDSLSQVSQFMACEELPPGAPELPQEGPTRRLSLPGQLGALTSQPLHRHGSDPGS
Chain of Rho-associated protein kinase 1 (Q13464 whole entry): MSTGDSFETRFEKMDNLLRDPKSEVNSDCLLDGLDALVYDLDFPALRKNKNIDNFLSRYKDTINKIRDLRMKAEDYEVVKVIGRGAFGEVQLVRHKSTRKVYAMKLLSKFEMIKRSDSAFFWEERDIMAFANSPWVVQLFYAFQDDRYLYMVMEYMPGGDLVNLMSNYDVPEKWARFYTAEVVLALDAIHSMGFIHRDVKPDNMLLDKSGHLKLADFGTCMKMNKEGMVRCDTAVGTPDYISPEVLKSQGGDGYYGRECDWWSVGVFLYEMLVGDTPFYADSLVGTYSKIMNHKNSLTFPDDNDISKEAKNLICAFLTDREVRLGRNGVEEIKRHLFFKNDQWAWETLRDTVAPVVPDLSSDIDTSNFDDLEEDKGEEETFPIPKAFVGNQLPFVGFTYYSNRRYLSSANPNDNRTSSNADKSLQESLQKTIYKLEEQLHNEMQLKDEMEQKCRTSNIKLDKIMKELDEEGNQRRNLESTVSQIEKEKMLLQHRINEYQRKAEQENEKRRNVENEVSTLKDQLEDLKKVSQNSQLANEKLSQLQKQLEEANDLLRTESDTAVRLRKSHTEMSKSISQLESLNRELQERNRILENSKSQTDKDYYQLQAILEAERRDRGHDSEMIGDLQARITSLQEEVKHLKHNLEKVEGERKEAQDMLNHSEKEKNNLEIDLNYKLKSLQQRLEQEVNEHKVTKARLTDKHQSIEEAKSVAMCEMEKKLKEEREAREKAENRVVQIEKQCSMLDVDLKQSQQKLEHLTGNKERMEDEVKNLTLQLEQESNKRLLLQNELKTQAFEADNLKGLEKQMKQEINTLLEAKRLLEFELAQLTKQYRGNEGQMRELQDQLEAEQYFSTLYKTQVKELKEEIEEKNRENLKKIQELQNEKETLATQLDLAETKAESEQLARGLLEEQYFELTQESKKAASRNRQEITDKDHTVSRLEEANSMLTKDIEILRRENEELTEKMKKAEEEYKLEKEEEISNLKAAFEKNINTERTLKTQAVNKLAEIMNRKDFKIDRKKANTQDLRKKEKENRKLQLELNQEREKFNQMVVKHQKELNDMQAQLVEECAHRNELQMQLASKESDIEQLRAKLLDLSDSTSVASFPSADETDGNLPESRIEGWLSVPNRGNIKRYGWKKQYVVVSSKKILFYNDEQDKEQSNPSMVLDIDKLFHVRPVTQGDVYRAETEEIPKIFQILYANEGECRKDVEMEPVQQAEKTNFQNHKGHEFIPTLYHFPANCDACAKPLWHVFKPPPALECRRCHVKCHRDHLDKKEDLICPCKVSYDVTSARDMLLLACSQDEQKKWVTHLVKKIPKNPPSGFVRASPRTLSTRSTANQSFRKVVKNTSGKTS

IC50 [1] [µM]	IC50 [2] [nM]	Ratio Ki [3]	Ki [4] [nM]	Compound	also measured
35	10000	32	22	CS(=O)(=O)Nc1cccc(CC(=O)Nc2nc(-c3c[nH]c4ncc(Br)cc34)cs2)c1	
8	310	46	11	CS(=O)(=O)Nc1cccc(CC(=O)Nc2nc(-c3c[nH]c4ncc(Cl)cc34)cs2)c1	
8		2	92	CS(=O)(=O)Nc1cccc(CC(=O)Nc2nc(-c3c[nH]c4nccc(Cl)c34)cs2)c1	
6	340	39	8	CS(=O)(=O)Nc1cccc(CC(=O)Nc2ccc(-c3c[nH]c4ncccc34)s2)c1	
6	70	53	3	CS(=O)(=O)Nc1cccc(CC(=O)Nc2nc(-c3c[nH]c4ncc(F)cc34)cs2)c1	IC50 [5]: > 30 µM; hepatocyte CLint [6]: 11.7 µL/min/1e6 cells; hepatocyte CLint [7]: 4.3 µL/min/1e6 cells
100	820	20	7	CS(=O)(=O)Nc1cccc(CC(=O)Nc2cc(-c3c[nH]c4ncccc34)ncn2)c1	
5		1	100	CS(=O)(=O)Nc1cccc(CC(=O)Nc2cc(-c3c[nH]c4ncccc34)cs2)c1	
	400	180	10	CN1CCN(CCCOc2cccc(CC(=O)Nc3nc(-c4c[nH]c5nccc(F)c45)cs3)c2)CC1	
	20			CN1CCN(CCOc2cccc(CC(=O)Nc3nc(-c4c[nH]c5ncccc45)cs3)c2)CC1	bioavailability [8]: 46%; Cmax [9]: 60 ng/mL; AUC(0-inf) [10]: 600 ng·h/mL; AUC(0-inf) [11]: 240 ng·h/mL; Vd [12]: 14 L/kg; half-life [13]: 192 min; clearance [14]: 71 mL/min/kg; hepatocyte CLint [6]: 32 µL/min/1e6 cells; hepatocyte CLint [7]: 3.3 µL/min/1e6 cells
100	1520	34	7	CS(=O)(=O)Nc1cccc(CC(=O)Nc2nnc(-c3c[nH]c4ncccc34)s2)c1	
12	370	31	10	CS(=O)(=O)Nc1cccc(CC(=O)Nc2csc(-c3c[nH]c4ncccc34)n2)c1	
27	400	320	3	CN1CCN(CCOc2cccc(CC(=O)Nc3nc(-c4c[nH]c5ncc(F)cc45)cs3)c2)CC1	
	140	> 480	1	O=C(Cc1cccc(OCCCC2CCNCC2)c1)Nc1nc(-c2c[nH]c3ncc(F)cc23)cs1	AUC(0-inf) [11]: 250 ng·h/mL; Vd [12]: 8.7 L/kg; half-life [13]: 228 min; clearance [14]: 66 mL/min/kg; IC50 [5]: > 30 µM; hepatocyte CLint [6]: 20.5 µL/min/1e6 cells; hepatocyte CLint [7]: 6.3 µL/min/1e6 cells
36	80	31	4	CS(=O)(=O)Nc1cccc(CC(=O)Nc2nc(-c3c[nH]c4nccc(F)c34)cs2)c1	
				CN1CCN(CCCOc2cccc(CC(=O)Nc3nc(-c4c[nH]c5ncccc45)cs3)c2)CC1	AUC(0-inf) [11]: 150 ng·h/mL; Vd [12]: 10 L/kg; half-life [13]: 42.6 min; clearance [14]: 114 mL/min/kg; hepatocyte CLint [6]: 26.8 µL/min/1e6 cells; hepatocyte CLint [7]: 7.5 µL/min/1e6 cells
5	1300	107	7	CS(=O)(=O)Nc1cccc(CC(=O)Nc2nc(-c3c[nH]c4ncc(O)cc34)cs2)c1	
	260	240	5	CN1CCN(CCCOc2cccc(CC(=O)Nc3nc(-c4c[nH]c5ncc(F)cc45)cs3)c2)CC1	
48	8000	23	48	CS(=O)(=O)Nc1cccc(CC(=O)Nc2nccc(-c3c[nH]c4ncccc34)n2)c1	
5		31	52	Cc1sc(NC(=O)Cc2cccc(NS(C)(=O)=O)c2)nc1-c1c[nH]c2ncccc12	
100	50	143	3	O=C(Cc1cccc(OCCCC2CCNCC2)c1)Nc1nc(-c2c[nH]c3nccc(F)c23)cs1	AUC(0-inf) [11]: 250 ng·h/mL; Vd [12]: 19 L/kg; half-life [13]: 330 min; clearance [14]: 68 mL/min/kg; IC50 [5]: > 30 µM; hepatocyte CLint [7]: 5.7 µL/min/1e6 cells
	20			O=C(Cc1cccc(OCCCC2CCNCC2)c1)Nc1nc(-c2c[nH]c3ncccc23)cs1	AUC(0-inf) [11]: 130 ng·h/mL; Vd [12]: 24 L/kg; half-life [13]: 324 min; clearance [14]: 128 mL/min/kg
	20			CS(=O)(=O)Nc1cccc(CC(=O)Nc2nc(-c3c[nH]c4ncccc34)cs2)c1	F ([8]; 3 mg/kg): 38%; Cmax [9]: 900 ng/mL; AUC [10]: 9.2 µg·h/mL; AUC [11]: 2.4 µg·h/mL; Vd [12]: 0.6 L/kg; half-life [13]: 120 min; clearance [14]: 7 mL/min/kg; hepatocyte CLint [6]: 6.7 µL/min/1e6 cells; hepatocyte CLint [7]: 4 µL/min/1e6 cells
